Test results taken from patent publication EP1276722B1, “NAPHTHAMIDINE UROKINASE INHIBITORS” (ABBOTT LABORATORIES, priority 2000, dated 2001).
Read-outs that look alike come from different tables or passages of the source.

Molecular target: T1, urokinase enzyme Abbokinase (Homo sapiens, UniProt P00749)
T1 construct: purchased Abbott Laboratories, Abbott Park, IL
Assay: Inhibition of urokinase on chromogenic substrate S-2444
Format: biochemical
Description: Four concentrations were chosen, then 5 µl of each were diluted to a total assay volume of 200 µL. […] Several vials were reconstituted as directed on the vial, aliquoted, and stored frozen The enzyme was further diluted in assay buffer and 10 µL was used in the assay. Enzyme concentration in the assay was 2-3 nM. The assay was performed as follows: 175 µL of buffer was pipetted inta the polystyrene plate, and 5 µL solution of a compound of this invention in DMSO was added. The mixture was vortexed, treated with 10 µL of enzyme in buffer, vortexed, treated with 10 µL of substrate in water, and vortexed. […] The Spectromax® calculated the reaction rates which were used to calculate percent inhibition of the compounds of this invention versus the reaction rate of the enzyme in the absence of any inhibitor. The Ki's of the inhibitors were calculated from the percent inhibition and previously established Km.

SMILES: CC(C)C1=NCCc2ccc(C3CC3c3cc(-c4ccoc4)c4cc(C(=N)N)ccc4c3)cc21 (centres unmarked) [Example 1, 8-(3-furyl)-6-(2-(1-isopropyl-3,4-dihydro-7-isoquinolinyl)cyclopropyl)-2-naphthalenecarboximidamide]
- Ki (read-out: Ki): 0.041 µM

SMILES: CC(C)c1nccc2ccc(C3CC3c3ccc4cc(C(=N)N)ccc4c3)cc12 (centres unmarked) [Example 2, 6-(2-(1-isopropyl-7-isoquinolinyl)cyclopropyl)-2-naphthalenecarboximidamide]
- Ki (read-out: Ki): 0.48 µM

SMILES: CC(C)C1c2cc(C3CC3c3cc(-c4ccoc4)c4cc(C(=N)N)ccc4c3)ccc2CCN1C (centres unmarked) [Example 3, 8-(3-furyl)-6-(2-(1-isopropyl-2-methyl-1,2,3,4-tetrahydro-7-isoquinolinyl)cyclopropyl)-2-naphthalenecarboximidamide]
- Ki (read-out: Ki): 0.025 µM

SMILES: COCC=Cc1cc(C2CC2c2ccc3c(c2)C(C(C)C)=NCC3)cc2ccc(C(=N)N)cc12 (centres unmarked) [Example 4, 6-(2-(1-isopropyl-3,4-dihydro-7-isoquinolinyl)cyclopropyl)-8-(3-methoxy-1-propenyl)-2-naphthalenecarboximidamide]
- Ki (read-out: Ki): 0.059 µM

SMILES: COC/C=C/c1cc(C2CC2c2ccc3c(c2)C(C(C)C)N(C)CC3)cc2ccc(C(=N)N)cc12 (centres unmarked) [Example 5, 6-(2-(1-isopropyl-2-methyl-1,2,3,4-tetrahydro-7-isoquinolinyl)cyclopropyl)-8-((1E)-3-methoxy-1-propenyl)-2-naphthalenecarboximidamide]
- Ki: 0.021 µM

SMILES: CC(C)C1=NCCc2ccc(C3CC3c3cc(C4CCOC4)c4cc(C(=N)N)ccc4c3)cc21 (centres unmarked) [Example 7, 6-(2-(1-isopropyl-3,4-dihydro-7-isoquinolinyl)cyclopropyl)-8-tetrahydro-3-furanyl-2-naphthalenecarboximidamide]
- Ki (read-out: Ki): 0.045 µM

SMILES: CC(C)/C=C/c1cc(C2CC2c2ccc3c(c2)C(C(C)C)=NCC3)cc2ccc(C(=N)N)cc12 (centres unmarked) [Example 8, 6-(2-(1-isopropyl-3,4-dihydro-7-isoquinolinyl)cyclopropyl)-8-((1E)-3-methyl-1-butenyl)-2-naphthalenecarboximidamide]
- Ki (read-out: Ki): 0.021 µM

SMILES: N=C(N)c1ccc2cc(C3CC3c3ccc4c(c3)C(C3CCCCC3)=NCC4)ccc2c1 (centres unmarked) [Example 9, 6-(2-(1-cyclohexyl-3,4-dihydro-7-isoquinolinyl)cyclopropyl)-2-naphthalenecarboximidamide]
- Ki (read-out: Ki): 0.05 µM

SMILES: N=C(N)c1ccc2cc(C3CC3c3ccc4c(c3)C(c3ccccc3)=NCC4)ccc2c1 (centres unmarked) [Example 10, 6-(2-(1-phenyl-3,4-dihydro-7-isoquinolinyl)cyclopropyl)-2-naphthalenecarboximidamide]
- Ki (read-out: Ki): 0.142 µM

SMILES: CCCC1c2cc(C3CC3c3ccc4cc(C(=N)N)ccc4c3)ccc2CCN1C (centres unmarked) [Example 11, 6-(2-(2-methyl-1-propyl-1,2,3,4-tetrahydro-7-isoquinolinyl)cyclopropyl)-2-naphthalenecarboximidamide]
- Ki (read-out: Ki): 0.128 µM

SMILES: CC(C)C1NCCc2ccc(C=Cc3ccc4cc(C(=N)N)ccc4c3)cc21 (centres unmarked) [Example 13, 6-(2-(1-isopropyl-1,2,3,4-tetrahydro-7-isoquinolinyl)ethenyl)-2-naphthalenecarboximidamide]
- Ki (read-out: Ki): 0.26 µM

SMILES: CC(=O)N1CCc2ccc(C3CC3c3ccc4cc(C(=N)N)ccc4c3)cc2C1C(C)C (centres unmarked) [Example 15, 6-(2-(2-acetyl-1-isopropyl-1,2,3,4-tetrahydro-7-isoquinolinyl)cyclopropyl)-2-naphthalenecarboximidamide]
- Ki (read-out: Ki): 0.16 µM

SMILES: CC(C)C1c2cc(C=Cc3ccc4cc(C(=N)N)ccc4c3)ccc2CCN1C (centres unmarked) [Example 16, 6-(2-(1-isopropyl-2-methyl-1,2,3,4-tetrahydro-7-isoquinolinyl)ethenyl)-2-naphthalenecarboximidamide]
- Ki (read-out: Ki): 0.12 µM

SMILES: COC(=O)N1CCc2ccc(C=Cc3ccc4cc(C(=N)N)ccc4c3)cc2C1C(C)C (centres unmarked) [Example 17, methyl 7-(2-(6-(amino(imino)methyl)-2-naphthyl)ethenyl)-1-isopropyl-3,4-dihydro-2(1H)-isoquinolinecarboxylate]
- Ki (read-out: Ki): 0.25 µM

SMILES: CC(C)C1c2cc(C3CC3c3ccc4cc(C(=N)N)ccc4c3)ccc2CCN1Cc1ccccc1 (centres unmarked) [Example 19, 6-(2-(2-benzyl-1-isopropyl-1,2,3,4-tetrahydro-7-isoquinolinyl)cyclopropyl)-2-naphthalenecarboximidamide]
- Ki (read-out: Ki): 0.144 µM

SMILES: CC(C)C1NCCc2ccc(C3CC3c3ccc4cc(C(=N)N)ccc4c3)cc21 (centres unmarked) [Example 20, 6-(2-(1-isopropyl-1,2,3,4-tetrahydro-7-isoquinolinyl)cyclopropyl)-2-naphthalenecarboximidamide]
- Ki (read-out: Ki): 0.084 µM

SMILES: CC(C)C1c2cc(C3CC3c3ccc4cc(C(=N)N)ccc4c3)ccc2CCN1Cc1cccnc1 (centres unmarked) [Example 21, 6-(2-(1-isopropyl-2-(3-pyridinylmethyl)-1,2,3,4-tetrahydro-7-isoquinolinyl)cyclopropyl)-2-naphthalenecarboximidamide]
- Ki (read-out: Ki): 0.084 µM

SMILES: CC(C)C1=NCCc2ccc(C=Cc3cc(Br)c4cc(C(=N)N)ccc4c3)cc21 [Example 22, 8-bromo-6-(2-(1-isopropyl-3,4-dihydro-7-isoquinolinyl)ethenyl)-2-naphthalenecarboximidamide]
- Ki (read-out: Ki): 0.291 µM

SMILES: CC(C)C1c2cc(C3CC3c3ccc4cc(C(=N)N)ccc4c3)ccc2CCN1CC1CC1 (centres unmarked) [Example 23, 6-(2-(2-(cyclopropylmethyl)-1-isopropyl-1,2,3,4-tetrahydro-7-isoquinolinyl)cyclopropyl)-2-naphthalenecarboximidamide]
- Ki (read-out: Ki): 0.058 µM

SMILES: CCN1CCc2ccc(C3CC3c3ccc4cc(C(=N)N)ccc4c3)cc2C1C(C)C (centres unmarked) [Example 24, 6-(2-(2-ethyl-1-isopropyl-1,2,3,4-tetrahydro-7-isoquinolinyl)cyclopropyl)-2-naphthalenecarboximidamide]
- Ki (read-out: Ki): 0.054 µM

SMILES: C=CCN1CCc2ccc(C3CC3c3ccc4cc(C(=N)N)ccc4c3)cc2C1C(C)C (centres unmarked) [Example 25, 6-(2-(2-allyl-1-isopropyl-1,2,3,4-tetrahydro-7-isoquinolinyl)cyclopropyl)-2-naphthalenecarboximidamide]
- Ki (read-out: Ki): 0.063 µM

SMILES: CC(C)C1c2cc(C3CC3c3ccc4cc(C(=N)N)ccc4c3)ccc2CCN1CCO (centres unmarked) [Example 26, 6-(2-(2-(2-hydroxyethyl)-1-isopropyl-1,2,3,4-tetrahydro-7-isoquinolinyl)cyclopropyl)-2-naphthalenecarboximidamide]
- Ki (read-out: Ki): 0.048 µM

SMILES: CC(C)C1c2cc(C3CC3c3ccc4cc(C(=N)N)ccc4c3)ccc2CCN1C(C)C (centres unmarked) [Example 27, 6-(2-(1,2-diisopropyl-1,2,3,4-tetrahydro-7-isoquinolinyl)cyclopropyl)-2-naphthalenecarboximidamide]
- Ki (read-out: Ki): 0.13 µM

SMILES: CC1c2cc(C3CC3c3ccc4cc(C(=N)N)ccc4c3)ccc2CCN1C (centres unmarked) [Example 30, 6-(2-(1,2-dimethyl-1,2,3,4-tetrahydro-7-isoquinolinyl)cyclopropyl)-2-naphthalenecarboximidamide]
- Ki (read-out: Ki): 0.278 µM

SMILES: CCC1(CC)CN=C(C(C)C)c2ccc(C3CC3c3ccc4cc(C(=N)N)ccc4c3)cc21 (centres unmarked) [Example 31, 6-(2-(4,4-diethyl-1-isopropyl-3,4-dihydro-6-isoquinolinyl)cyclopropyl)-2-naphthalenecarboximidamide]
- Ki (read-out: Ki): 0.35 µM

SMILES: CCC1(CC)CN(C)C(C(C)C)c2ccc(C3CC3c3ccc4cc(C(=N)N)ccc4c3)cc21 (centres unmarked) [Example 32, 6-(2-(4,4-diethyl-1-isopropyl-2-methyl-1,2,3,4-tetrahydro-6-isoquinolinyl)cyclopropyl)-2-naphthalenecarboximidamide]
- Ki (read-out: Ki): 0.35 µM

SMILES: CC(C)C1c2cc(C3CC3c3ccc4cc(C(=N)N)ccc4c3)ccc2CCN1CC(F)(F)F (centres unmarked) [Example 33, 6-(2-(1-isopropyl-2-(2,2,2-trifluoroethyl)-1,2,3,4-tetrahydro-7-isoquinolinyl)cyclopropyl)-2-naphthalenecarboximidamide]
- Ki (read-out: Ki): 1.44 µM

SMILES: CC(C)C1=NCCc2ccc(C3CC3c3cc(/C=C/C(C)(C)C)c4cc(C(=N)N)ccc4c3)cc21 (centres unmarked) [Example 34, 8-((1E)-3,3-dimethyl-1-butenyl)-6-(2-(1-isopropyl-3,4-dihydro-7-isoquinolinyl)cyclopropyl)-2-naphthalenecarboximidamide]
- Ki (read-out: Ki): 0.051 µM

SMILES: CC(C)C1=NCCc2ccc(C3CC3c3cc(Br)c4cc(C(=N)N)ccc4c3)cc21 (centres unmarked) [Example 35, 8-bromo-6-(2-(1-isopropyl-3,4-dihydro-7-isoquinolinyl)cyclopropyl)-2-naphthalenecarboximidamide]
- Ki (read-out: Ki): 0.128 µM

SMILES: CC(C)C1c2cc(C3CC3c3cc(Br)c4cc(C(=N)N)ccc4c3)ccc2CCN1C (centres unmarked) [Example 36, 8-bromo-6-(2-(1-isopropyl-2-methyl-1,2,3,4-tetrahydro-7-isoquinolinyl)cyclopropyl)-2-naphthalenecarboximidamide]
- Ki (read-out: Ki): 0.054 µM

SMILES: CC(C)/C=C/c1cc(C2CC2c2ccc3c(c2)C(C(C)C)N(C)CC3)cc2ccc(C(=N)N)cc12 (centres unmarked) [Example 37, 6-(2-(1-isopropyl-2-methyl-1,2,3,4-tetrahydro-7-isoquinolinyl)cyclopropyl)-8-((1E)-3-methyl-1-butenyl)-2-naphthalenecarboximidamide]
- Ki (read-out: Ki): 0.01 µM

SMILES: C=C(C)/C=C/c1cc(C2CC2c2ccc3c(c2)C(C(C)C)N(C)CC3)cc2ccc(C(=N)N)cc12 (centres unmarked) [Example 38, 6-(2-(1-isopropyl-2-methyl-1,2,3,4-tetrahydro-7-isoquinolinyl)cyclopropyl)-8-((1E)-3-methyl-1,3-butadienyl)-2-naphthalenecarboximidamide]
- Ki (read-out: Ki): 0.04 µM

SMILES: CC(C)C1c2cc(C3CC3c3cc(C4CC4)c4cc(C(=N)N)ccc4c3)ccc2CCN1C (centres unmarked) [Example 39, 8-cyclopropyl-6-(2-(1-isopropyl-2-methyl-1,2,3,4-tetrahydro-7-isoquinolinyl)cyclopropyl)-2-naphthalenecarboximidamide]
- Ki (read-out: Ki): 0.037 µM

SMILES: COc1ccccc1-c1cc(C2CC2c2ccc3c(c2)C(C(C)C)N(C)CC3)cc2ccc(C(=N)N)cc12 (centres unmarked) [Example 40, 6-(2-(1-isopropyl-2-methyl-1,2,3,4-tetrahydro-7-isoquinolinyl)cyclopropyl)-8-(2-methoxyphenyl)-2-naphthalenecarboximidamide]
- Ki (read-out: Ki): 0.81 µM

SMILES: C=Cc1cc(C2CC2c2ccc3c(c2)C(C(C)C)N(C)CC3)cc2ccc(C(=N)N)cc12 (centres unmarked) [Example 41, 6-(2-(1-isopropyl-2-methyl-1,2,3,4-tetrahydro-7-isoquinolinyl)cyclopropyl)-8-vinyl-2-naphthalenecarboximidamide]
- Ki (read-out: Ki): 0.014 µM
